Read-outs that look alike come from different tables or passages of the source.
Key:
stable toxin (YST-I) = stable toxin (YST-I) (Yersinia enterocolitica, UniProt P07593); experiment: Ussing chamber assay, effect of cadaverine on YST-I; type: cell-based
ShET-1 and ShET-2 [1] = type: cell-based, Shigella flexneri 2a
heat stable toxin (STa) = experiment: Ussing chamber assay, effect of cadaverine on heat stable toxin (STa); type: cell-based, enterotoxigenic Escherichia coli
BS103 = conditions: T84 monolayers, mean ± SEM
ShET-1 and ShET-2 [2] = experiment: Fluid accumulation in ileal loops, effect of cadaverine; type: in vivo, Shigella flexneri 2a; conditions: cadaverine 400 μM unless otherwise indicated
cholera toxin = cholera toxin (Vibrio cholerae serotype O1, UniProt P01555+P01556); type: cell-based
cholera toxin, sequence (P01555 19-258 limits assumed): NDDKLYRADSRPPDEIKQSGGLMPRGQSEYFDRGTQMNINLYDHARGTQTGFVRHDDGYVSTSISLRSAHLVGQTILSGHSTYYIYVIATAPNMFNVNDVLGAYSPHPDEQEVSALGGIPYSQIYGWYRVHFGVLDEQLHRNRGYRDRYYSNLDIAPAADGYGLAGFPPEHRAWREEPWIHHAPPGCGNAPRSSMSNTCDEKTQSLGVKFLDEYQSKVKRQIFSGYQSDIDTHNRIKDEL
cholera toxin, sequence (P01556 22-124 limits assumed): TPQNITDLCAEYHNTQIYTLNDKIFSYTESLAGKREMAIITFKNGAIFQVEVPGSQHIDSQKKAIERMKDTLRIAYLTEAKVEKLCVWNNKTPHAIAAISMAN

stable toxin (YST-11) = experiment: Ussing chamber assay, effect of cadaverine on YST-11; type: cell-based, Yersinia enterocolitica; conditions: toxin mucosal side; cadaverine (400 μM) both sides
[3] = tested on: cytolethal distending toxin; experiment: Ussing chamber assay, effect of cadaverine on cytolethal distending toxin; type: cell-based, Campylobacter jejuni
Tsh-associated toxin = experiment: Ussing chamber assay, effect of cadaverine on Tsh-associated toxin; type: cell-based, avian pathogenic Escherichia coli; conditions: toxin mucosal side; cadaverine (400 μM) both sides
Shiga toxin [4] = biological target: T1, Shiga toxin (Shigella dysenteriae, UniProt Q7BQ98+Q9FBI2); conditions: cadaverine 400 μM unless otherwise indicated
T1 sequence (Q9FBI2 23-315 limits assumed): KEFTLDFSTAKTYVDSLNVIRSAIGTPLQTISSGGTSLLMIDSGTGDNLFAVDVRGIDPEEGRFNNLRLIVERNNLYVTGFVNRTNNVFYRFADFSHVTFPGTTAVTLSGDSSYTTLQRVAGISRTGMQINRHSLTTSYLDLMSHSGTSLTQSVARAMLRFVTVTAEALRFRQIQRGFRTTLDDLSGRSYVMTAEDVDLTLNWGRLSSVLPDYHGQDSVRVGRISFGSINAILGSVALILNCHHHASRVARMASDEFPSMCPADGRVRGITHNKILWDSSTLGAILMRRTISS
T1 sequence (Q7BQ98 21-89 limits assumed): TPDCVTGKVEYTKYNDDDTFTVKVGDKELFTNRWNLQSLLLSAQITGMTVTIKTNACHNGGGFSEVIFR

Shiga toxin [5] = biological target: T1, Shiga toxin; type: cell-based, Shigella dysenteriae 1
[6] = tested on: S. flexneri-induced PMN transepithelial migration; experiment: PMN transepithelial migration assay across T84 cell monolayers
[7] = tested on: S. flexneri 2a strain 2457T; type: cell-based, Shigella flexneri 2a; conditions: 2457T + 1 mM supplement present only during the two hour invasion period
mxiA::lacZ = type: cell-based, S. flexneri 2a
ipaB::lacZ = type: cell-based, S. flexneri 2a
spa47::lacZ = type: cell-based, S. flexneri 2a
[8] = tested on: representative virulence genes; type: cell-based, S. flexneri 2a
[9] = cadaverine 400 μM unless otherwise indicated
[10] = toxin mucosal side, cadaverine (400 μM) both sides

**Q.** For `NCCCCCN` [cadaverine, 1,5-diaminopentane], which “Effect of Cadaverine, enterotoxicity in Ussing chambers” value (“Effect of Cadaverine, enterotoxicity” for short) (stable toxin (YST-I); [9]) is on record?
**A.** Its value is “completely”.

**Q.** What about the “ΔIsc + cadaverine” value (stable toxin (YST-I); [10]) of the same compound?
**A.** The value was −11.0.

**Q.** And the “Effect of Cadaverine, enterotoxicity” value (ShET-1 and ShET-2 [1])?
**A.** The value was “blocked”.

**Q.** And the “ΔIsc + cadaverine” value (ShET-1 and ShET-2 [1])?
**A.** Its value is 2.7.

**Q.** What about the “ΔIsc as % of the value in tissues not pretreated” value (ShET-1 and ShET-2 [1]) of the same compound?
**A.** Its value is 40%.

**Q.** And the “Effect of Cadaverine, enterotoxicity” value (heat stable toxin (STa); [9])?
**A.** Its value is “none”.

**Q.** What about the “ΔIsc + cadaverine” value (heat stable toxin (STa); [10]) of the same compound?
**A.** The value was 75.9.

**Q.** And the “% Association BS103” value (BS103; 100 μM cadaverine)?
**A.** The value was 4.37 ± 1.64%.

**Q.** What about the “% Internalization BS103” value (BS103; 100 μM cadaverine) of the same compound?
**A.** The value was 0.08 ± 0.02%.

**Q.** And the “% Association BS103” value (BS103; 300 μM cadaverine)?
**A.** The value was 3.14 ± 0.75%.

**Q.** And the “% Internalization BS103” value (BS103; 300 μM cadaverine)?
**A.** Its value is 0.03 ± 0.01%.

**Q.** And the “% Association BS103” value (BS103; 500 μM cadaverine)?
**A.** The value was 2.11 ± 0.90%.

**Q.** What about the “% Internalization BS103” value (BS103; 500 μM cadaverine) of the same compound?
**A.** Its value is 0.01 ± 0.01%.

**Q.** What about the “Effect of Cadaverine, fluid accumulation in ileal loops” value (ShET-1 and ShET-2 [2]) of the same compound?
**A.** Its value is “both completely”.

**Q.** What about the “Effect of Cadaverine, enterotoxicity” value (cholera toxin; [9]) of the same compound?
**A.** The value was “none”.

**Q.** What about the “ΔIsc + cadaverine” value (cholera toxin; [10]) of the same compound?
**A.** The value was 70.9.

**Q.** What about the “ΔIsc + cadaverine” value (stable toxin (YST-11)) of the same compound?
**A.** The value was 32.4.

**Q.** What about the “Effect of Cadaverine, enterotoxicity” value [3, 9] of the same compound?
**A.** The value was “completely”.

**Q.** What about the “ΔIsc + cadaverine” value [3, 10] of the same compound?
**A.** Its value is −18.7.

**Q.** What about the “ΔIsc + cadaverine” value (Tsh-associated toxin) of the same compound?
**A.** The value was 23.3.

**Q.** What about the “Effect of Cadaverine, cytotoxicity in Vero cells” value (Shiga toxin [4]) of the same compound?
**A.** The value was “none”.

**Q.** What about the “Effect of Cadaverine, enterotoxicity” value (Shiga toxin [5]; [9]) of the same compound?
**A.** Its value is “blocked;”.

**Q.** What about the “ΔIsc + cadaverine” value (Shiga toxin [5]; [10]) of the same compound?
**A.** The value was −13.6.

**Q.** What about the “ability of S. flexneri to promote PMN transepithelial migration” value ([6]; 2457T added basolaterally together with cadaverine 100, 300 and 500 μM (FIG. 3)) of the same compound?
**A.** Its value is “dose dependent decrease”.

**Q.** What about the “down regulation of S. flexneri-induced PMN transepithelial migration” value ([6]; T84 infected with 2457T 1 hr, then apical cadaverine 300 μM 30 min (FIG. 5)) of the same compound?
**A.** The value was 60%.

**Q.** Which “% FIREWORKS” value [7] does the source give for `O=C(O)c1cccnc1C(=O)O` [quinolinate] here?
**A.** Its value is 0%.

**Q.** What about the “% INVASION” value [7] of the same compound?
**A.** The value was 0.5%.

**Q.** And the “Miller Units of activity” value (mxiA::lacZ)?
**A.** Its value is 196.5 ± 2.0 Miller Units.

**Q.** And the “Miller Units of activity” value (ipaB::lacZ)?
**A.** The value was 140.5 ± 2.9 Miller Units.

**Q.** And the “Miller Units of activity” value (spa47::lacZ)?
**A.** Its value is 312.3 ± 6.5 Miller Units.

**Q.** What about the “reduction of virulence gene expression” value [8] of the same compound?
**A.** Its value is “about 50%”.

**Q.** `O=C(O)c1cccnc1` [nicotinic acid] was tested. Which “% FIREWORKS” value [7] did it give?
**A.** Its value is 17%.

**Q.** And the “% INVASION” value [7]?
**A.** Its value is 85%.

**Q.** Which results are given for `O=C(O)c1ccc[n+]([C@@H]2O[C@H](COP(=O)(O)O)[C@@H](O)[C@H]2O)c1` [nicotinic acid mononucleotide]?
**A.** % FIREWORKS [7]: 17%; % INVASION [7]: 82%
